Our source for the IC50 values is ChEMBL document CHEMBL1212812, “Multi-target spectral moment QSAR versus ANN for antiparasitic drugs against different parasite species” (Bioorg Med Chem, 2010).

Where a name gives a salt, the structure may show the parent alone.

The first experiment concerns Plasmodium falciparum. As to the kind of experiment: Antimicrobial activity against Plasmodium falciparum. Type of experiment: functional, organism-based.
Turning to `C=C[C@H]1CN2CC[C@H]1C[C@@H]2[C@@H](O)c1ccnc2ccccc12` [CINCHONINE], half-maximal inhibition (IC50) required 23 µM.

With `Cc1nc2cnncc2n1-c1ccc(Cl)cc1C(=O)c1ccccc1Cl`, 1 µM corresponded to half-maximal inhibition (IC50).

Turning to `Cc1ccc(C(=O)/C=C2\C(=O)Nc3ccc(Br)cc32)cc1`, the half-maximal inhibitory concentration (IC50) (commonly the concentration that inhibits the measured activity by half) stood at 3 µM.

For `CC(C)=CCC/C(C)=C/C[C@@]1(C)SC(=O)C(C)=C1O` [THIOLACTOMYCIN 4], the IC50 amounted to 8 µM.

Molecule `NC1=NC(c2cccc(OCc3ccccc3)c2)N(c2cccc(Cl)c2)C(N)=N1` (centres undefined) registered a 50% inhibitory concentration (IC50) of 8 µM.

As to `Nc1ncc(Cc2cccc(Oc3ccccc3)c2)c(N)n1`, half-maximal inhibition (IC50) was put at 30 µM.

With `CN1CCN(CCCN2c3ccccc3Sc3ccc(C(F)(F)F)cc32)CC1` [TRIFLUOPERAZINE], half-maximal inhibition (IC50) required 6 µM.

In the case of `NC1=NC(c2cccc(OCCCOc3cc(Cl)c(Cl)cc3Cl)c2)N(c2cccc(Cl)c2)C(N)=N1` (centres undefined), the concentration for half-maximal inhibition (IC50) is 9 µM.

`CNCC(O)CC12CCC(c3ccccc31)c1ccccc12` (centres undefined) [OXAPROTILINE] displayed a 50% inhibitory concentration (IC50) of 245 µM.

Molecule `COc1ccc(Cc2cnc(N)nc2N)cc1OCc1ccccc1` gave an IC50 of 4 µM.

For `CC(C)CCNC(P(=O)(O)O)P(=O)(O)O` [(ISOPENTYLAMINO)METHYLENEDIPHOSPHONIC ACID], the IC50 is 200 µM.

`O=C1Cc2c([nH]c3ccc([N+](=O)[O-])cc23)-c2ccccc2N1` [ALSTERPAULLONE] displayed a half-inhibitory concentration (IC50) of 4 µM.

On to `C[C@H]1c2cccc(O)c2C(=O)C2=C(O)[C@]3(O)C(=O)C(C(N)=O)=C(O)[C@@H](N(C)C)[C@@H]3[C@@H](O)[C@@H]21` [DOXYCYCLINE], for which it took 18 µM to reach half-maximal inhibition (IC50).

As for `C/C=C1/CN2CCc3c([nH]c4ccccc34)[C@@H]2C[C@@H]1Cc1nccc2c1[nH]c1ccccc12` [USAMBARENSINE], the IC50 is 2 µM.

On to `CN(C)C1C2c3ccccc3C(c3ccccc32)C1C(=O)O` (centres undefined), for which the IC50 came to 50 µM.

In turn, `CC(C)=CCc1c(O)c2ccccc2c2nc3ccccc3nc12` gave an IC50 of 9 µM.

In turn, `CN(C)C1CC2c3ccccc3C1c1ccccc12` (centres undefined) gave an IC50 of 9 µM.

Regarding `O=C1NC(=O)C(C(=O)Nc2ccc(Cl)cc2)c2ccccc21` (centres undefined) [TESICAM], the IC50 was determined as 16 µM.

In turn, `CC(C)NC(=N)NC(=N)Nc1ccc(Cl)c(Cl)c1` [CHLORPROGUANIL] yielded a 50% inhibitory concentration (IC50) of 9 µM.

`C=CCC1Cc2c(c3ccccc3c3nc4ccccc4nc23)OC1(C)C` (centres undefined) gave an IC50 of 20 µM.

On to `CN(C)c1ccc(O)c2c1C[C@H]1C[C@H]3[C@H](N(C)C)C(O)=C(C(N)=O)C(=O)[C@@]3(O)C(O)=C1C2=O` [MINOCYCLINE], for which 3 µM corresponded to half-maximal inhibition (IC50).

In turn, `CC1C2c3ccccc3C(c3ccccc32)C1C[N+](C)(C)C` (centres undefined) returned a half-maximal inhibitory concentration (IC50) of 17 µM.

Take `CC(C)=CC[C@@]1(C)SC(=O)C(C)=C1O` [THIOLACTOMYCIN 2]: the IC50 was 100 µM.

`CCCCCCC1(C)N=C(N)N=C(N)N1c1cccc(Cl)c1` (centres undefined) yielded a concentration for half-maximal inhibition (IC50) of 3 µM.

The molecule `COc1ccnc(C[S+]([O-])c2nc3cc(OC(F)F)ccc3[nH]2)c1OC` (centres undefined) [PANTOPRAZOLE] displayed a concentration for half-maximal inhibition (IC50) of 39 µM.

In turn, `CN(C)CCC=C1c2ccccc2CCc2ccccc21` [AMITRIPTYLINE] returned an IC50 of 558 µM.

Regarding `Cc1cc(C)nc(NC(P(=O)(O)O)P(=O)(O)O)c1`, it took 200 µM to reach half-maximal inhibition (IC50).

Molecule `CC[C@H]1OC(=O)[C@H](C)[C@@H](O[C@H]2C[C@@](C)(OC)[C@@H](O)[C@H](C)O2)[C@H](C)[C@@H](O[C@@H]2O[C@H](C)C[C@H](N(C)C)[C@H]2O)[C@](C)(O)C[C@@H](C)/C(=N\OCOCCOC)[C@H](C)[C@@H](O)[C@]1(C)O` [ROXITHROMYCIN] yielded a half-maximal inhibitory concentration (IC50) of 19 µM.

Consider `Cn1c2nc3ccccc3c-2cc2cc(F)ccc21`, for which the IC50 was found to be 5 µM.

`O=C1Nc2ccccc2/C1=C\c1ccc(C(F)(F)F)cc1` came in with an IC50 of 4 µM.

`CC(=O)OCCCc1nc(N)nc(N)c1-c1cccc(Cl)c1`: the IC50 was determined as 2 µM.

`CCCCCCCCCCOS(=O)(=O)O` [SODIUM DECYL SULFATE] registered an IC50 of 460 µM.

The molecule `c1cc(N2CCN(c3ccc(C4OCCO4)cc3)CC2)ccc1C1OCCO1` yielded a half-maximal inhibitory concentration (IC50) of 1 µM.

Molecule `CCCCOc1ccc(NC(P(=O)(O)O)P(=O)(O)O)cc1` registered an IC50 of 200 µM.

In turn, `CN(C)[C@@H]1C(O)=C(C(N)=O)C(=O)[C@@]2(O)C(O)=C3C(=O)c4c(O)cccc4[C@@](C)(O)[C@H]3[C@H](O)[C@@H]12` [OXYTETRACYCLINE] displayed a 50% inhibitory concentration (IC50) of 34 µM.

The molecule `CN(C)/N=N\C(=O)C1C2c3ccccc3C(c3ccccc32)C1C(=O)/N=N/N(C)C` (centres undefined) displayed an IC50 of 33 µM.

The molecule `COc1ncnc(NS(=O)(=O)c2ccc(N)cc2)c1OC` [SULFADOXINE] registered an IC50 of 37 µM.

Turning to `COc1cc(/C(N)=N/O)cc(OC)c1OC`, half-maximal inhibition (IC50) was put at 2010 µM.

`CCN(CC)Cc1cc(Nc2ccnc3cc(Cl)ccc23)ccc1O` came in with a half-maximal inhibitory concentration (IC50) of 15 µM.

The molecule `O=C(NCc1ccccc1)C1=CC2c3ccccc3C1c1ccccc12` returned a half-inhibitory concentration (IC50) of 52 µM.

The molecule `O=P(O)(O)C(Nc1cccnc1)P(=O)(O)O` gave an IC50 of 200 µM.

`CN(C)CC1=C(CN(C)C)C2c3ccccc3C1c1ccccc12` came in with a concentration for half-maximal inhibition (IC50) of 3 µM.

The molecule `COc1cc(NC(C)CCCN)c2nccc(C)c2c1OCCCCCc1c(C)cccc1C` (centres undefined) displayed an IC50 of 22 µM.

The test system of another experiment is Leishmania infantum. As to the kind of experiment: Antimicrobial activity against Leishmania infantum. Type of experiment: functional, organism-based.
In the case of `COc1ccc2nc3ccc(NCCCCNc4ccc5nc6ccc(OC)cc6c(Cl)c5c4)cc3c(Cl)c2c1`, the IC50 stood at 10 µM.

The molecule `COc1ccc2nc3ccc(N(CCCCCCCN(c4ccc5nc6ccc(OC)cc6c(Cl)c5c4)c4ccc5nc6ccc(OC)cc6c(Cl)c5c4)c4ccc5nc6ccc(OC)cc6c(Cl)c5c4)cc3c(Cl)c2c1` registered an IC50 of 1 µM.

`COc1ccc2nc3ccc(N(CCCCCCCN(c4ccc5nc6ccc(OC)cc6c(N)c5c4)c4ccc5nc6ccc(OC)cc6c(N)c5c4)c4ccc5nc6ccc(OC)cc6c(N)c5c4)cc3c(N)c2c1` came in with an IC50 of 139 µM.

Regarding `COc1ccc2nc3ccc(COC(=O)CC(C)C)cc3c(Cl)c2c1`, inhibition was half-maximal at 36 µM (IC50).

`COc1ccc2nc3ccc(COC(=O)c4ccc(F)cc4)cc3c(N)c2c1` gave an IC50 of 1 µM.

With `COc1ccc2nc3ccc(NCCCCCCNc4ccc5nc6ccc(OC)cc6c(Cl)c5c4)cc3c(Cl)c2c1`, the IC50 was 3 µM.

In the case of `CCCC(=O)OCc1ccc2nc3ccc(OC)cc3c(N)c2c1`, the 50% inhibitory concentration (IC50) was found to be 3 µM.

The molecule `COc1ccc2nc3ccc(COC(=O)CC(C)C)cc3c(N)c2c1` registered an IC50 of 2 µM.

`COC(=O)OCc1ccc2nc3ccc(OC)cc3c(Cl)c2c1` came in with an IC50 of 3 µM.

The molecule `COc1ccc2nc3ccc(COC(=O)c4ccccc4)cc3c(N)c2c1` came in with an IC50 of 35 µM.

In turn, `COc1ccc2nc3ccc(NCCCCCCNc4ccc5nc6ccc(OC)cc6c(N)c5c4)cc3c(N)c2c1` had an IC50 of 1 µM.

`COC(=O)OCc1ccc2nc3ccc(OC)cc3c(N)c2c1` yielded a half-maximal inhibitory concentration (IC50) of 1 µM.

As to `COc1ccc2nc3ccc(C)cc3c(Cl)c2c1`, the IC50 was 10 µM.

Turning to `COc1ccc2nc3ccc(N(CCCCCCCCN(c4ccc5nc6ccc(OC)cc6c(N)c5c4)c4ccc5nc6ccc(OC)cc6c(N)c5c4)c4ccc5nc6ccc(OC)cc6c(N)c5c4)cc3c(N)c2c1`, the IC50 is 1 µM.

The molecule `COc1ccc2nc3ccc(N(CCCCCCN(c4ccc5nc6ccc(OC)cc6c(N)c5c4)c4ccc5nc6ccc(OC)cc6c(N)c5c4)c4ccc5nc6ccc(OC)cc6c(N)c5c4)cc3c(N)c2c1` gave an IC50 of 7 µM.

`COc1ccc(C(=O)OCc2ccc3nc4ccc(OC)cc4c(Cl)c3c2)cc1`: the IC50 amounted to 125 µM.
